Measurements as given in patent US8003609B2, “Method for ameliorating pain by modification of NMDA receptors through inhibition of Src” (The Hospital for Sick Children, priority 2004, dated 2011).

Columns and labels:
ND2 = test: immunoblots of total soluble protein from chloramphenicol-treated hippocampal neurons, ND2; settings: 50 μg/ml, 48 hours treatment
[1] = system: Src association with the NMDAR complex; test: co-immunoprecipitation of Src with the NMDAR complex in cultured hippocampal neurons; settings: 50 μg/ml, 48 hours
[2] = system: cultured hippocampal neurons; assay type: cell-based, rat
Method: The dequenching response evoked by bath-applied FCCP (2 μM) in neurons from chloramphenicol-treated or control cultures was assessed. […] Nevertheless, it was noted that the intracellular solution used for all whole-cell recordings contained 2 mM Mg-ATP, so that the level of intracellular ATP was equal in all cells throughout the experiments.

[3] = system: NR2B subunit of NMDA receptors; test: NR2B tyrosine phosphorylation after formalin injection; assay type: in vivo; settings: intrathecal administration; 60 minutes post-injection of formalin
Method: It can be seen that by 60 minutes post-injection of formalin, tyrosine phosphorylation of the NR2B subunit increases.

NR2B subunit = test: nerve-injury induced phosphorylation of NR2B in Src kinase null mice; assay type: in vivo
cuff-induced allodynia = cuff-induced allodynia in wild-type and Src kinase null mice, paw withdrawal threshold; assay type: in vivo; settings: 100 pmol intravenous injection
Excerpt: Pain induced by cuff implantation, in a laboratory animal such as a rat or mouse, is an art-accepted model of neuropathic pain. Generally, in cuff implantation a nerve root in the sciatic nerve leading to a hind paw is tied off by surgical implantation of a “cuff”, for example, a polyethylene ring. Over a period of time the nerve degenerates and a neuropathic pain pattern develops. A control is created by subjecting another group of animals to “sham surgery”, a procedure wherein the animals receive the same type of surgery as cuff implantation without the physical implantation of the cuff. After a period of time, the paw is stimulated by a series of filaments or exposure to a small amount of moderate heat. Pain is measured by observation of “paw withdrawal”, in general, if the animal lifts the paw and the time it takes to do so. Typically, an animal not experiencing neuropathic pain will not respond to the stimuli. When testing using filaments, threshold is defined in terms of force. […] This testing method is described in the art; Ren Physiological Behavior 67:711-716 1999 and Guo et al. The Journal of Neuroscience 22(14):6208-6217 2002. Another experiment was performed to compare cuff-induced allodynia in wild-type mice to Src kinase null mice (Src kinase knock-out mice). The PWT was tested in the mice prior to surgery. […]

[4] = system: 2.5% formalin-induced flinching or biting/licking behaviors; test: formalin test (inflammatory pain); assay type: in vivo, rat; settings: 0.1 pmol intravenously 45 minutes before testing; compared to HIV-Tat alone and saline; over an hour
Method: Male Sprague-Dawley rats 150-200 g were used for all experiments. Rats were housed in pairs, maintained on a 12/12 hour light/dark cycle, and allowed free access to food and water. All experiments were conducted during 10 am and […]. Peptide Src40-49Tat (TSUDAPI-1; SEQ ID NO:2) or Tat alone (amino acid residues 1-11 of SEQ ID NO:2) was dissolved in sterilized saline. Peptide or saline was injected intravenously at a volume 1 ml/Kg into rat's tail 45 minutes before behavioral testing. Injections were done under brief halothane anesthesia and rats were returned to the cages after injections. The formalin test was performed as previously described (Liu et al. European Journal of Pharmacology 408(2):143-152 2000). Rats were placed in a plexiglass observation chamber for an initial 20 minutes to allow acclimatization to the testing environment. Formalin 2.5% was injected subcutaneously in a volume of […] into the plantar aspect of the hind paw. Following injections, rats were returned to the observation chamber and monitored for flinching behaviors (lifting, shaking and overt flinching with a ripple over the haunch) and biting/licking time. […] Recorded episodes were not corrected, thus values represent about half of the total behaviors expressed. FIGS. 7A-D show the effect of Src40-49Tat (0.1 pmol) on 2.5% formalin induced flinching or biting/licking behaviors. […]

[5] = system: cuff-induced tactile allodynia; test: cuff implantation tactile allodynia, paw withdrawal threshold; assay type: in vivo, mice
Excerpt: Pain induced by cuff implantation, in a laboratory animal such as a rat or mouse, is an art-accepted model of neuropathic pain. Generally, in cuff implantation a nerve root in the sciatic nerve leading to a hind paw is tied off by surgical implantation of a “cuff”, for example, a polyethylene ring. Over a period of time the nerve degenerates and a neuropathic pain pattern develops. A control is created by subjecting another group of animals to “sham surgery”, a procedure wherein the animals receive the same type of surgery as cuff implantation without the physical implantation of the cuff. After a period of time, the paw is stimulated by a series of filaments or exposure to a small amount of moderate heat. Pain is measured by observation of “paw withdrawal”, in general, if the animal lifts the paw and the time it takes to do so. Typically, an animal not experiencing neuropathic pain will not respond to the stimuli. When testing using filaments, threshold is defined in terms of force. […] This testing method is described in the art; Ren Physiological Behavior 67:711-716 1999 and Guo et al. The Journal of Neuroscience 22(14):6208-6217 2002.
In this experiment, tactile allodynia was induced in a group of mice by cuff implantation and symptoms were observed as early as day 3 post-surgery. Allodynia was allowed to fully develop at 8-10 days post-surgery before the “paw withdrawal” tests were performed. A group of mice received an intrathecal (introduced into the space under the arachnoid membrane of the brain or spinal cord) injection of 0.02 pmol of Src40-49Tat (TSUDAPI-1, SEQ ID NO:2), a second group of mice received an intrathecal injection of 0.02 pmol Scramble Src40-49Tat and a third group of mice received an intrathecal injection of saline. “Scramble Src40-49Tat” refers to TSUDAI-1 (SEQ ID NO:2) having a “scrambled” sequence, i.e. having amino acid residues out of order from the normal. Green represents Src40-49Tat (TSUDAPI-1, SEQ ID NO:2), grey represents Scramble Src40-49Tat and red represents saline. […] The reversal was significant at more than 5 hours post injection, with PWT 6.03±1.45 g (Src40-49Tat) versus 1.7±0.47 g (scrambled Src40-49Tat)(p<0.05).
Another group of mice received an intravenous injection of 10 pmol/g of Src40-49Tat (TSUDAPI-1, SEQ ID NO:2) and a second group of mice received an intravenous injection of saline. Green represents Src40-49Tat (TSUDAPI-1, SEQ ID NO:2) and red represents saline. […] The anti-allodynic effect of the peptide (SEQ ID NO:2) peaked at 2 hours following injection, with PWT 9.28±2.55 g (Src40-49Tat) versus 1.95±0.617 g (saline) (p<0.05).

[6] = system: NMDA receptor NR2B subunits; test: NR2B tyrosine phosphorylation in spinal cord dorsal horn of cuffed rats; assay type: in vivo, rat; settings: intrathecal injection of 0.02 pmol
Excerpt: This graph represents quantification of band (from western blots) density in three experiments.

[7] = intravenous injection of 10 pmol/g

Compound: O=C(N[C@H](CO)[C@H](O)c1ccc([N+](=O)[O-])cc1)C(Cl)Cl [chloramphenicol]
- level of ND2 in the cultures reduced by (ND2): more than 95%
- co-immunoprecipitation of Src with the NMDAR complex [1]: suppress
- functioning of the neurons [2]: did not detectably compromise

Compound: Src40-49Tat: SUDAPI-1 combined with the carrier peptide, HIV-Tat (SEQ ID NO:2) (YGRKKRRQRRRKPASADGHR; listed as Homo sapiens)
- formalin-induced increase of NR2B tyrosine phosphorylation [3]: significantly reduced
- phosphorylation of NR2B subunits (NR2B subunit): did not further decrease
- PWT in null mice (cuff-induced allodynia; Src kinase null mice): did not further increase
- PWT after treatment (cuff-induced allodynia; wild-type mice, from 0.008±0.0 g before): 0.23 ± 0.05 g
- pain behaviors in the formalin test [4]: reduce pain behaviors
- PWT ([5]; intrathecal 0.02 pmol, more than 5 hours post injection): 6.03 ± 1.45 g
- onset of the reversal effect ([5]; intrathecal injection of 0.02 pmol): as early as one hour
- reversal of allodynia ([5]; intrathecal injection of 0.02 pmol, 8-10 days post-surgery): significantly reversed allodynia
- PWT ([5]; intravenous 10 pmol/g, 2 hours following injection): 9.28 ± 2.55 g
- onset of the reversal effect [5, 7]: as early as one hour
- reversal of allodynia [5, 7]: significantly reversed allodynia
- time of peak anti-allodynic effect following injection [5, 7]: 2 h
- increase in tyrosine phosphorylation of NR2B subunits in spinal cord dorsal horn [6]: significantly reversed
